The target of one data set is T1, Wee-1 kinase (Homo sapiens, UniProt P30291).
T1 construct: purchased Invitrogen PV3817
Put plainly: Measurement of Wee-1 kinase activity (ADP-Glo luminescent kit). In kind it is biochemical. In short, it runs like this: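 Activated Wee-1 was pre-incubated 30 min at RT with compound in 40 mM Tris-HCl, 20 mM MgCl2, 0.1 mg/mL BSA and 2 mM DTT. The reaction was started with an aliquot of 2.0 μg/mL poly(Lys,Tyr 4:1) plus 30 μM ATP and run 1 h at RT. ADP-Glo luminescence gave IC50 by non-linear fit.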

The subject of data set [1] is phospho-cdc2 (Tyr15) in HT-29 cells. Put plainly: Effect on Cdc2 phosphorylation at Tyr15, Cell-Based ELISA Base Kit (Method 3). The conditions noted are these: Homo sapiens, HT-29, 8 h, eight hours incubation, normalized to total cdc2, read-out: HT29 pCDC2 method 3. How it is done: Method 3: Determining the Effect of Compounds on the Cdc2 phosphorylation at Tyr15, using a Cell-Based ELISA Base Kit (R&D Systems, KCB001)
The colorectal cancer cell line, HT-29 was purchased from the ATCC and maintained in McCoy's 5 A medium (Gibco®, Life technologies) supplemented with 10% Foetal Calf Serum (FCS).
The cells were trypsinised and counted, 100 μL of 8000 cells was seeded into each well of a clear-bottom black 96-well microplate and incubated overnight to allow adherence to the surface, at 37° C. and 5% CO2 in a cell culture incubator.
Test compounds were formulated in DMSO and diluted in cell culture medium supplemented with FCS. Grow medium was removed from cells and medium containing compounds dilutions was added to each well. The plate was returned to the incubator for an additional eight hours of incubation at 37° C. and 5% CO2.
Post incubation cells were fixed by replacing the compounds supplemented medium with 100 μL of 4% formaldehyde in 1× phosphate buffered saline (PBS), for 20 minutes at room temperature. Formaldehyde solution was removed and cells were washed three times with PBS. The Cell-Based ELISA assay (R&D Systems) was carried out immediately after cell fixation or the plate was sealed and fixed cells were stored in PBS at 4° C. until required (no more than two weeks).
To continue the assay, PBS was removed and cells were washed 3 times for 5 minutes with 200 μL of 1× wash buffer. Each wash step was carried out with gentle shaking. Following washes, 100 μL of 0.6% H2O2 in 1× wash buffer (quenching buffer) was added, plate was sealed and incubated for 20 minutes at room temperature. Post incubation cells were washes 3 times for 5 minutes with 200 μL of 1× wash buffer, with gentle shaking. 100 μL of blocking buffer was added to each well, the plate was re-sealed and incubated at room temperature for 1 h.
After blocking, cells were washed as described above. A primary antibody mixture was prepared by mixing the two primary antibodies, a rabbit monoclonal antibody for phospho-cdc2 (Tyr15) (Cell Signaling, #4539) and mouse monoclonal antibody for total cdc2 p34 (Santa Cruz Biotechnology, sc-54), diluted 1:25 and 1:50 in blocking buffer, respectively. 60 μL of primary antibody mixture was added to each well, the plate was sealed and incubated overnight at 4° C.
The primary antibodies were removed and cells were washed as previously described. 100 μL of secondary antibody mixture, containing horseradish-peroxidase (HRP)-conjugated goat anti-rabbit IgG and alkaline phosphatase (AP)-conjugated goat anti-mouse IgG, diluted 1:100 in blocking buffer, was added to each test well. The plate was re-sealed and incubated for 2 hours at room temperature.
The secondary antibodies were removed and cells washed 2 times with wash buffer, followed by 2 washes with PBS. Each wash step was carried out for 5 minutes with gentle shaking. PBS was removed and 75 μL of fluorogenic substrate for HRP (substrate F1) added to each well. The plate was sealed and incubated for 1 h at room temperature, in the dark. 75 μL of fluorogenic substrate for AP (substrate F2) was added directly to each well, plate re-sealed and incubated for additional 40 minutes at room temperature, protected from direct light.
Following incubation fluorescence from each well was read at 600 nm (signal from substrate 1, phosphorylated protein) and then at 450 nm (signal from substrate 2, total protein).
The percentage of phospho-cdc2 was calculated compared to DMSO control, normalized to the total cdc2 and plotted versus the concentration of inhibitor, using GraphPad Prism. Data was fitted using a non-linear regression analysis and EC50 values generated.
On the technique in general: In an ELISA, binding on a coated surface is turned into a signal by an enzyme label.

Data set [2] is described as follows: CLint estimates using human liver microsomes (Method 4). It is filed as in vitro ADME. The conditions noted are these: pH 7.4, 1 μM compound, read-out: Mics - CLint (HLM CLint). In outline: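 Compound at 1 μM (0.1% DMSO) incubated with human liver microsomes (0.5 mg protein/mL) in 0.1 M phosphate pH 7.4 at 37 °C, started with 1 mM NADPH. Samples taken 2–50 min, quenched in methanol, measured by LC/MS/MS (MRM). Half-life and CLint derived from the slope of ln peak area versus time.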

For 16 compounds, IC50, EC50 and microsomal CLint results are on record in patent US9850247B2 (Almac Discovery Limited, priority 2013, dated 2017).

pEC50, pIC50: −log10 of the molar value. Bounds are passed on as bounds.

T1 sequence (P30291 whole entry): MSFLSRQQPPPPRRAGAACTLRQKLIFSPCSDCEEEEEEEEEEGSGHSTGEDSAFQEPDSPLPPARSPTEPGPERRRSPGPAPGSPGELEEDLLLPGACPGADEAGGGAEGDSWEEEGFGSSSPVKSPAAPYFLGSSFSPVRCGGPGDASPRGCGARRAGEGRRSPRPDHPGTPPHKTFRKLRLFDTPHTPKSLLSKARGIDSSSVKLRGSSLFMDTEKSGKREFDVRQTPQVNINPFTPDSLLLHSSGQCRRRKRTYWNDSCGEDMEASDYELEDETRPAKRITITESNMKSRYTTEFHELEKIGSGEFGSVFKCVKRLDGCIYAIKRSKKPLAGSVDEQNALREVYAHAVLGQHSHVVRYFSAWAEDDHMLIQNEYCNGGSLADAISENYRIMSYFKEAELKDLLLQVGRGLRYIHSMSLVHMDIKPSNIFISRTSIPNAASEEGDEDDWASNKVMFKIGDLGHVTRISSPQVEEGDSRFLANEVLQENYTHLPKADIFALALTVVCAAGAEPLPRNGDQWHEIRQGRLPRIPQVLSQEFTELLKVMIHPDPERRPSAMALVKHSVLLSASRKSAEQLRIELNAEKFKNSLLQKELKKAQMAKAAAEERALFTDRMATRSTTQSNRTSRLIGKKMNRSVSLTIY

As to `CNCC(=O)N1CCN(c2ccc(Nc3ncc4c(n3)N(C)CN(c3c(Cl)cccc3Cl)C4=O)cc2)CC1` [Example 124, 3-(2,6-dichlorophenyl)-1-methyl-7-((4-(4-(2-(methylamino)acetyl)piperazin-1-yl)phenyl)amino)-2,3-dihydropyrimido[4,5-d]pyrimidin-4(1H)-one], at Wee-1 kinase, the pIC50 (as a rule, the IC50 on a negative log10 scale, so that one unit is a factor of ten) is at least 8.00. Also, the pEC50 in data set [1] was 6.00 to 7.00. The microsomal CLint at 1 μM in data set [2] was at most 15 µL/min/mg.
Consider `CCN1CN(c2c(Cl)cccc2Cl)C(=O)c2cnc(Nc3ccc(N4CCNCC4)cc3)nc21` [Example 169, 3-(2,6-dichlorophenyl)-1-ethyl-7-((4-(piperazin-1-yl)phenyl)amino)-2,3-dihydropyrimido[4,5-d]pyrimidin-4(1H)-one], for which, at Wee-1 kinase, the pIC50 is 7.00 to 8.00. Moreover, the pEC50 in data set [1] is at most 6.00. Further, the microsomal CLint at 1 μM in data set [2] was at most 15 µL/min/mg.
Regarding `CCN1CCN(c2ccc(Nc3ncc4c(n3)N(C)CN(c3c(Cl)cccc3Cl)C4=O)cc2CO)CC1` [Example 72, 3-(2,6-dichlorophenyl)-7-((4-(4-ethylpiperazin-1-yl)-3-(hydroxymethyl)phenyl)amino)-1-methyl-2,3-dihydropyrimido[4,5-d]pyrimidin-4(1H)-one], on Wee-1 kinase, the pIC50 is at least 8.00. Also, the pEC50 in data set [1] was 6.00 to 7.00. Moreover, the microsomal CLint at 1 μM in data set [2] was at most 15 µL/min/mg.
The like results for `C[C@@H]1CN(c2ccc(Nc3ncc4c(n3)N(C)CN(c3c(Cl)cccc3Cl)C4=O)cc2CN(C)C)C[C@H](C)O1` [Example 151, 3-(2,6-dichlorophenyl)-7-((3-((dimethylamino)methyl)-4-((2S,6R)-2,6-dimethylmorpholino)phenyl)amino)-1-methyl-2,3-dihydropyrimido[4,5-d]pyrimidin-4(1H)-one] were, in that order, at least 8.00, 6.00 to 7.00 and at least 50 µL/min/mg.
Regarding `CNCc1cc(Nc2ncc3c(n2)N(C)CN(c2c(Cl)cccc2Cl)C3=O)ccc1N1CCC(F)(F)CC1` [Example 147, 3-(2,6-dichlorophenyl)-7-((4-(4,4-difluoropiperidin-1-yl)-3-((methylamino)methyl)phenyl)amino)-1-methyl-2,3-dihydropyrimido[4,5-d]pyrimidin-4(1H)-one], the pIC50 on Wee-1 kinase is at least 8.00. Further, in data set [1], the pEC50 is 6.00 to 7.00. Moreover, in data set [2], the microsomal CLint at 1 μM was at most 15 µL/min/mg.
In the same order, the values of `Cc1cccc(Cl)c1N1CN(C)c2nc(Nc3ccc(N4CC5CCC(C4)N5C)c(CO)c3)ncc2C1=O` [Example 114, 3-(2-chloro-6-methylphenyl)-7-((3-(hydroxymethyl)-4-(8-methyl-3,8-diazabicyclo[3.2.1]octan-3-yl)phenyl)amino)-1-methyl-2,3-dihydropyrimido[4,5-d]pyrimidin-4(1H)-one] are at least 8.00, 6.00 to 7.00 and at most 15 µL/min/mg.
In the same order, the values of `CNCc1cccc(N2CN(c3c(Cl)cccc3Cl)C(=O)c3cnc(Nc4ccc(N5CCOCC5)cc4)nc32)c1` [Example 168, 3-(2,6-dichlorophenyl)-1-(3-((methylamino)methyl)phenyl)-7-((4-morpholinophenyl)amino)-2,3-dihydropyrimido[4,5-d]pyrimidin-4(1H)-one] are at least 8.00, 6.00 to 7.00 and at most 15 µL/min/mg.
For `CN1CN(c2c(Cl)cccc2Cl)C(=O)c2cnc(Nc3ccc(C4CCNCC4)c(CO)c3)nc21` [Example 167, 3-(2,6-dichlorophenyl)-7-((3-(hydroxymethyl)-4-(piperidin-4-yl)phenyl)amino)-1-methyl-2,3-dihydropyrimido[4,5-d]pyrimidin-4(1H)-one], the pIC50 at Wee-1 kinase is at least 8.00. For the same compound, the pEC50 in data set [1] was at most 6.00. For the same compound, the microsomal CLint at 1 μM in data set [2] is at most 15 µL/min/mg.
In the same order, the values of `CNCc1cc(Nc2ncc3c(n2)N(C)CN(c2c(Cl)cccc2Cl)C3=O)ccc1N1CCCC1` [Example 137, 3-(2,6-dichlorophenyl)-1-methyl-7-((3-((methylamino)methyl)-4-(pyrrolidin-1-yl)phenyl)amino)-2,3-dihydropyrimido[4,5-d]pyrimidin-4(1H)-one] are 7.00 to 8.00, 6.00 to 7.00 and at least 50 µL/min/mg.
In the same order, the values of `Cc1cc(Nc2ncc3c(n2)N(C)CN(c2c(Cl)cccc2Cl)C3=O)ccc1N1C[C@@H]2C[C@H]1CN2C` [Example 77, 3-(2,6-dichlorophenyl)-1-methyl-7-((3-methyl-4-((1S,4S)-5-methyl-2,5-diazabicyclo[2.2.1]heptan-2-yl)phenyl)amino)-2,3-dihydropyrimido[4,5-d]pyrimidin-4(1H)-one] are at least 8.00, 6.00 to 7.00 and 15 to 50 µL/min/mg.
As for `COC[C@H]1CN(c2ccc(Nc3ncc4c(n3)N(C)CN(c3c(Cl)cccc3Cl)C4=O)cc2CO)CCN1` [Example 135, (R)-3-(2,6-dichlorophenyl)-7-((3-(hydroxymethyl)-4-(3-(methoxymethyl)piperazin-1-yl)phenyl)amino)-1-methyl-2,3-dihydropyrimido[4,5-d]pyrimidin-4(1H)-one], the pIC50 on Wee-1 kinase was at least 8.00. In addition, in data set [1], the pEC50 was 6.00 to 7.00. In data set [2], the microsomal CLint at 1 μM is at most 15 µL/min/mg.
In the same order, the values of `CC(C)N1CCN(c2ccc(Nc3ncc4c(n3)N(C)CN(c3c(F)cccc3Cl)C4=O)cc2CO)CC1` [Example 89, 3-(2-chloro-6-fluorophenyl)-7-((3-(hydroxymethyl)-4-(4-isopropylpiperazin-1-yl)phenyl)amino)-1-methyl-2,3-dihydropyrimido[4,5-d]pyrimidin-4(1H)-one] are at least 8.00, 6.00 to 7.00 and at most 15 µL/min/mg.
In the same order, the values of `CN1CN(c2c(Cl)cccc2Cl)C(=O)c2cnc(Nc3ccc(N4CCNC[C@H]4CO)cc3)nc21` [Example 127, (S)-3-(2,6-dichlorophenyl)-7-((4-(2-(hydroxymethyl)piperazin-1-yl)phenyl)amino)-1-methyl-2,3-dihydropyrimido[4,5-d]pyrimidin-4(1H)-one] are at least 8.00, at most 6.00 and at most 15 µL/min/mg.
The like results for `CN(C)Cc1cc(Nc2ncc3c(n2)N(C)CN(c2c(Cl)cccc2Cl)C3=O)ccc1N1CCOCC1` [Example 154, 3-(2,6-dichlorophenyl)-7-((3-((dimethylamino)methyl)-4-morpholinophenyl)amino)-1-methyl-2,3-dihydropyrimido[4,5-d]pyrimidin-4(1H)-one] were, in that order, at least 8.00, 6.00 to 7.00 and 15 to 50 µL/min/mg.
`Cc1cc(Nc2ncc3c(n2)N(C)CN(c2c(F)cccc2Cl)C3=O)ccc1N1CCNCC1` [Example 55, 3-(2-chloro-6-fluorophenyl)-1-methyl-7-((3-methyl-4-(piperazin-1-yl)phenyl)amino)-2,3-dihydropyrimido[4,5-d]pyrimidin-4(1H)-one]: the pIC50 at Wee-1 kinase was at least 8.00. Moreover, the pEC50 in data set [1] was 6.00 to 7.00. In data set [2], the microsomal CLint at 1 μM was at most 15 µL/min/mg.
The like results for `CN1CCN(c2ccc(Nc3ncc4c(n3)N(C)CN(c3c(Cl)cccc3Cl)C4=O)cc2)[C@H](CO)C1` [Example 128, (S)-3-(2,6-dichlorophenyl)-7-((4-(2-(hydroxymethyl)-4-methylpiperazin-1-yl)phenyl)amino)-1-methyl-2,3-dihydropyrimido[4,5-d]pyrimidin-4(1H)-one] were, in that order, 7.00 to 8.00, 6.00 to 7.00 and 15 to 50 µL/min/mg.
